# What was measured:
# Assay in all cases: combination Emax (second highest fraction inhibited in the dose matrix, 72 h); higher = more inhibition; extreme values may be limits of the assay
# [1] = tested on: EMC-BAC-2 (Non-Small Cell Lung Carcinoma)
# Outline: (§1)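 After 24 hours at 37°C and 5% CO2 in 1536-well plates, cells in DMEM/F12 or RPMI plus 10% FBS received two-drug dose matrices for 72 hours. Viability came from CellTiter-Glo 2.0 luminescence and was scaled as inhibition, anchored at 0 by vehicle wells and at 1 by blank wells. Combination Emax is taken as the second-highest inhibition in the matrix, and Bliss excess as the observed combination effect less EA + EB − EA·EB, with EA and EB the single-agent effects.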
# EW-3 (Ewing's Sarcoma) = tested on: EW-3 (Ewing's Sarcoma)
# Outline: as §1
# GI-1 (Glioblastoma) = tested on: GI-1 (Glioblastoma)
# Outline: as §1
# [2] = tested on: H-EMC-SS (Chondrosarcoma)
# Outline: as §1
# [3] = tested on: KP-2 (Pancreatic Carcinoma)
# Outline: as §1
# [4] = tested on: KU-19-19 (Bladder Carcinoma)
# Outline: as §1
# [5] = tested on: KYSE-150 (Esophageal Squamous Cell Carcinoma)
# Outline: as §1
# [6] = tested on: KYSE-50 (Esophageal Squamous Cell Carcinoma)
# Outline: as §1
# [7] = tested on: LOU-NH91 (Squamous Cell Lung Carcinoma)
# Outline: as §1
# [8] = tested on: MFE-319 (Endometrial Carcinoma)
# Outline: as §1
# NB7 (Neuroblastoma) = tested on: NB7 (Neuroblastoma)
# Outline: as §1
# [9] = tested on: NCI-H1573 (Lung Adenocarcinoma)
# Outline: as §1
# [10] = tested on: NCI-H513 (Other Solid Carcinomas)
# Outline: as §1
# [11] = tested on: NCI-N87 (Gastric Carcinoma)
# Outline: as §1
# NH-12 (Neuroblastoma) = tested on: NH-12 (Neuroblastoma)
# Outline: as §1
# [12] = tested on: OCUB-M (Breast Carcinoma)
# Outline: as §1
# [13] = tested on: PF-382 (T-Lymphoblastic Leukemia)
# Outline: as §1
# RPMI-7951 (Melanoma) = tested on: RPMI-7951 (Melanoma)
# Outline: as §1
# [14] = tested on: SNU-C1 (Colorectal Carcinoma)
# Outline: as §1
# [15] = tested on: TGBC11TKB (Gastric Carcinoma)
# Outline: as §1
Structure (SMILES),combination Emax [1],combination Emax (EW-3 (Ewing's Sarcoma)),combination Emax (GI-1 (Glioblastoma)),combination Emax [2],combination Emax [3],combination Emax [4],combination Emax [5],combination Emax [6],combination Emax [7],combination Emax [8],combination Emax (NB7 (Neuroblastoma)),combination Emax [9],combination Emax [10],combination Emax [11],combination Emax (NH-12 (Neuroblastoma)),combination Emax [12],combination Emax [13],combination Emax (RPMI-7951 (Melanoma)),combination Emax [14],combination Emax [15]
"CC(=O)Nc1cccc(-n2c(=O)n(C3CC3)c(=O)c3c(Nc4ccc(I)cc4F)n(C)c(=O)c(C)c32)c1 [Trametinib] + Cc1nc(-c2cn3c(n2)-c2ccc(-c4cnn(C(C)(C)C(N)=O)c4)cc2OCC3)n(C(C)C)n1 [Taselisib] (first compound max 1 µM, 7x7, partner max 10 µM)",0.945,0.364,0.766,0.991,0.74,1,0.886,0.757,0.672,0.799,0.577,0.89,0.757,0.913,0.841,1,0.905,0.931,0.79,0.86
"CC1(C)CCC(CN2CCN(c3ccc(C(=O)NS(=O)(=O)c4ccc(NCC5CCOCC5)c([N+](=O)[O-])c4)c(Oc4cnc5[nH]ccc5c4)c3)CC2)=C(c2ccc(Cl)cc2)C1 [Venetoclax] + Cn1cnc2c(F)c(Nc3ccc(Br)cc3Cl)c(C(=O)NOCCO)cc21 [Selumetinib] (first compound max 1 µM, 7x7, partner max 3 µM)",0.347,0.643,0.179,0.341,0.455,0.748,0.273,0.133,0.246,0.145,0.137,0.289,0.228,0.242,0.777,0.286,0.18,0.424,0.467,0.313
"Cc1cc2ncnn2cc1Nc1ncc2c(n1)n(C1CCOCC1)c(=O)n2C [AZD7648] + O=C(c1cc(Cc2n[nH]c(=O)c3ccccc23)ccc1F)N1CCN(C(=O)C2CC2)CC1 [Olaparib] (first compound max 10 µM, 7x7, partner max 10 µM)",0.204,0.657,0.261,0.321,0.12,0.251,0.537,0.0839,0.186,0.118,0.219,0.0771,0.257,0.301,0.317,0.256,0.49,0.303,0.158,0.269
"NC1(C(=O)N[C@@H](CCO)c2ccc(Cl)cc2)CCN(c2ncnc3[nH]ccc23)CC1 [Capivasertib] + CC(=O)c1c(C)c2cnc(Nc3ccc(N4CCNCC4)cn3)nc2n(C2CCCC2)c1=O [Palbociclib] (first compound max 10 µM, 7x7, partner max 10 µM)",0.663,0.414,0.626,0.512,0.451,0.536,0.644,0.326,0.5,0.611,0.689,0.507,0.368,0.76,0.519,0.994,0.743,0.854,0.549,0.166
"C[C@@H](c1ccc2nccn2c1)n1nnc2ncc(-c3cnn(C)c3)nc21 [Savolitinib] + CC1(C)CCC(CN2CCN(c3ccc(C(=O)NS(=O)(=O)c4ccc(NCC5CCOCC5)c([N+](=O)[O-])c4)c(Oc4cnc5[nH]ccc5c4)c3)CC2)=C(c2ccc(Cl)cc2)C1 [Venetoclax] (first compound max 1 µM, 7x7, partner max 1 µM)",0.0698,0.379,0.317,0.183,0.148,0.132,0.189,0.196,0.135,0,0.108,0.203,0.0676,0.22,0.406,0.116,0.134,0.13,0.133,0.0823
"Cn1cnc2c(F)c(Nc3ccc(Br)cc3Cl)c(C(=O)NOCCO)cc21 [Selumetinib] + CCN(CCO)CCCOc1ccc2c(Nc3cc(CC(=O)Nc4cccc(F)c4)[nH]n3)ncnc2c1 [AZD2811] (first compound max 10 µM, 7x7, partner max 1 µM)",0.398,0.444,0.286,0.263,0.468,0.955,0.492,0.409,0.372,0.262,0.415,0.412,0.264,0.305,0.729,0.713,0.911,0.425,0.723,0.569
